Data as given in US9365830B2, “Agents and methods for inhibiting human pluripotent stem cell growth” (VIACYTE, INC., priority 2010, dated 2016).
pEC50: −log10 of the molar value.

Tests used:
Format in all cases: cell-based, human
[1] = test system: pancreatic endoderm differentiations of hESCs; assay: Suspension aggregate differentiation to pancreatic endoderm after Stage 1 treatment, Q-PCR; settings: Stage 1 cultures treated with 0.1 μM Caffeic acid or 0.17 μM Ivermectin
Description: FIGS. 10A-10I are bar graphs showing the relative gene expression levels of OCT4 (FIG. 10A), MIXL (FIG. 10B), HNF1B (FIG. 10C), HNF4A (FIG. 10D), PAX4 (FIG. 10E), NGN3 (FIG. 10F), NKX2.2 (FIG. 10G), NKX6.1 (FIG. 10H), and PTF1A (FIG. 10I) after treatment of suspension aggregate cell cultures at Stages 1 with DMSO (Control), 0.1 μM Caffeic acid or 0.17 μM Ivermectin agents. Untreated control samples were collected at d0 and d1 (left panel). Treated samples were collected at d2, d3, d5, d7, d9, d11, and d13. The columns for each day of the treated samples are (from left to right): DMSO, Caffeic acid, and Ivermectin. The cultures were differentiated to the end of Stage 4. The results from an untreated, pancreatic endoderm differentiation are shown on the right, with samples collected on days 0, 1, 2, 5, 8, 10 and 14.
To further determine the effects of the above compounds (excluding those compounds that induced off-target differentiation), three selected compounds (chelerythrine chloride (FIGS. 5 & 6), caffeic acid and Ivermectin) were screened for effects on later stages of pancreatic differentiation, (such as Stages 2-5). Human ESCs were first differentiated through Stage 1 then to Stages 2 to 5 in suspension aggregate cultures similar to that above. Stage 1 cultures were treated with DMSO, caffeic acid or Ivermectin substantially as described above. Untreated control samples were collected at d0 (hESC) and d1 (FIG. 10, left panel), while treated samples were collected at days 2, 3, 5, 7, 9, 11 and 13 (FIG. 10 d2, d3, d5, d7, d9, d11 and d13 respectively). Gene expression levels in the collected samples were analyzed using Q-PCR and compared to the d0 (hESC) sample as well as qualified pancreatic endoderm (FIG. 10, right panel). The qualified pancreatic endoderm control consisted of about 50% pancreatic endoderm, about 46% endocrine cells and about 4% “other” cells as determined by flow cytometry. Neither caffeic acid nor Ivermectin affected survival, growth and/or proliferation of pancreatic endoderm differentiations. […] Typical gene expression levels for Stages 3, 4 and 5 cells were normal; for example, increased expression of NKX6.1 and PTF1A at Stage 4, pancreatic endoderm (FIGS. 10H and 10I), and of NGN3 and NKX2.2 at Stage 5, endocrine precursor and endocrine cells (FIGS. 10 F and 10G) was observed.

[2] = test system: undifferentiated hESCs growing in adherent culture; assay: EC50 of cytotoxic effect on undifferentiated hESCs in adherent culture, real-time impedance assay; settings: Homo sapiens, read-out: EC50 concentrations for hES cells (cytotoxic effect)
Description: In summary, the final three (3) candidates identified from both the primary and secondary screens (EXAMPLE 1) and the full screen of the LOPAC1280™ collection (EXAMPLE 2) were Chelerythrine Chloride, Caffeic acid and Ivermectin. FIG. 11 lists the known or inferred mode(s) of action for these three compounds, as well as their structures. EC50 values for the respective cytotoxic effects on undifferentiated hESCs growing in adherent culture were determined using real-time impedance assays.
(§1) Depletion of OCT4-positive cells during Stage 1 differentiation was examined using the plating assay described above. Stage 1 differentiations of hES cells were treated from day 1 to 2 with the candidate compounds as described in Example 2 (chelerythrine chloride, caffeic acid and Ivermectin), at their EC50 concentrations for hES cells. Plated untreated and DMSO-treated aggregates were indistinguishable, and both contained discrete clusters of OCT4-positive cells. See FIG. 13A top and bottom panels for a DMSO treated example. The intensity of OCT4-positive staining in differentiating aggregate cell cultures treated with DMSO (control) was equivalent to undifferentiated hES cells.

[3] = test system: OCT4-positive cells in Stage 1 differentiations of hES cells; assay: Plating assay for depletion of OCT4-positive cells in Stage 1 suspension aggregates, OCT4 immunostaining
Description: Human ES cell suspension aggregates were formed in rotational culture as described previously and differentiated through Stage 1 (definitive endoderm). About 20-30 aggregates were then plated per well in 4-well tissue culture dishes coated with MATRIGEL· diluted 1:200, and cultured for 24 hours in hESC medium (DMEM/F12, 10% XF-KSR, 10 ng/mL Activin A and 10 ng/mL Heregulin). This approach was intended to increase the contrast in OCT4 expression between undifferentiated hESCs and cells committed to differentiation. […] Stated in another way, mixed population cell cultures in hESC medium would potentially support expansion/proliferation of residual undifferentiated (hESCs), thereby show increased OCT4 gene expression, as compared to cells committed to differentiation, which would have decreased of OCT4 gene expression. Plated aggregates were immunostained for OCT4 protein and counterstained with DAPI, a nuclear stain (FIG. 12). The cell aggregates that were plated had flattened and spread out within a 24-hour period; while the centers of the aggregates were still domed. […] Brightly staining OCT4-positive cells were easily identified and distinguishable from the majority of OCT4 negative cells. OCT4-positive cells were generally found in clusters and most often within the domed area of a plated aggregate. […] Smaller aggregates residing in a larger aggregate may occur as a result of the initial stages of rotational culture, or the aggregation process, during which small clusters (primary aggregates) form initially. Aggregation of two or more primary aggregates likely leads to the formation of larger secondary aggregates, which can be 100-150 μm in diameter. Thus, it is possible that any single clusters of OCT4-positive cells exist at the center of a primary aggregate and resist differentiation. Such clusters would remain substantially undifferentiated and stain OCT4-positive. One hypothesis is that primary aggregates are specified to differentiation relative to their positioning in primary and secondary aggregates. For example, FIGS. 12A through 12E show a representative series of images, from small (primary) (e.g. FIGS. 12A and 12B) and larger (secondary) (e.g. FIGS. 12C-12E) plated aggregates containing OCT4-positive clusters (dark circles).
as §1
Additional experiments were performed using higher concentrations of compounds and extended effects of the compounds in cell culture plated aggregates in hESC medium for 24 or 72 hours before staining (FIGS. 15 and 16). […] Another group of Stage 1 differentiating cultures were processed in parallel, but treated with 10 μm chelerythrine chloride.

## O=C(O)C=Cc1ccc(O)c(O)c1 [caffeic acid, 3,4-dihydroxycinnamic acid]
[1]; Q-PCR d2-d13
  Typical gene expression levels for Stages 3, 4 and 5 cells (NKX6.1, PTF1A, NGN3, NKX2.2): normal
[1]; differentiated to end of Stage 4
  survival, growth and/or proliferation of pancreatic endoderm differentiations (pancreatic endoderm viability): did not affect pancreatic endoderm viability
[2]
  pEC50: 7.00
[3]; 5 or 10 μm caffeic acid, 24 hours, vs DMSO-treated (or untreated) controls
  size of clusters of OCT4-positive cells: smaller in size
[3]; 5 or 10 μm caffeic acid, 72 hours, vs DMSO treated control
  expansion of clusters of OCT4-positive cells: did not expand substantially
[3]; another study, 0.1 μM caffeic acid, 24 hours after plating in hESC medium (FIG. 14, BG02)
  size of OCT4-positive clusters: even more substantial decrease
[3]; treated day 1 to 2 of Stage 1 at EC50 concentration, plated 24 hours in hESC medium, vs untreated or DMSO
  intensity for OCT4 staining: significantly decreased
